Measurements: PubChem BioAssay (NCI)
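Assay format: 96-well plates, 48-hour exposure. The concentration for full growth arrest is given as TGI.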

How the values were obtained:
Test in all cases: growth of human tumour cells (NCI), 48 h
[1] = system: HCT-15 colon
[2] = system: K-562 leukemia
[3] = system: IGROV1 ovarian
[4] = system: KM20L2 colon
[5] = system: OVCAR-3 ovarian
[6] = system: LOX IMVI melanoma
[7] = system: A498 renal
[8] = system: UO-31 renal
[9] = system: NCI-H23 lung
[10] = system: CCRF-CEM leukemia
[11] = system: OVCAR-8 ovarian
[12] = system: NCI-H460 lung
[13] = system: MOLT-4 leukemia
[14] = system: SF-295 CNS
[15] = system: NCI-H226 lung
[16] = system: DMS 114 small cell lung
[17] = system: M19-MEL melanoma
[18] = system: SNB-78 CNS
[19] = system: HOP-62 NSCLC
[20] = system: SR leukemia
[21] = system: SF-539 CNS
[22] = system: SN12C renal
[23] = system: SK-MEL-5 melanoma
[24] = system: 786-0 renal
[25] = system: MALME-3M melanoma
[26] = system: SK-OV-3 ovarian
[27] = system: SK-MEL-2 melanoma
[28] = system: HCT-116 colon
[29] = system: EKVX NSCLC
[30] = system: M14 melanoma
[31] = system: SK-MEL-28 melanoma
[32] = system: TK-10 renal
[33] = system: OVCAR-5 ovarian
[34] = system: SW-620 colon
[35] = system: RPMI-8226 leukemia
[36] = system: HL-60(TB) leukemia
[37] = system: XF 498 CNS
[38] = system: HT29 colon
[39] = system: HCC-2998 colon
[40] = system: UACC-62 melanoma
[41] = system: NCI-H522 lung
[42] = system: UACC-257 melanoma
[43] = system: ACHN renal
[44] = system: SNB-19 CNS
[45] = system: U251 CNS
[46] = system: A549 NSCLC
[47] = system: KM12 colon
[48] = system: CAKI-1 renal
[49] = system: OVCAR-4 ovarian
[50] = system: COLO 205 colon
[51] = system: DMS 273 small cell lung
[52] = system: T-47D breast
[53] = system: RXF 393 renal
[54] = system: HS 578T breast
[55] = system: NCI/ADR-RES ovarian
[56] = system: MCF7 breast
[57] = system: HOP-92 NSCLC
[58] = system: SF-268 CNS
[59] = system: SNB-75 CNS
[60] = system: BT-549 breast
[61] = system: MDA-MB-435
[62] = system: DU-145 prostate
[63] = system: PC-3 prostate
[64] = system: MDA-MB-231 breast
[65] = system: MDA-N
[66] = system: LXFL 529 NSCLC
[67] = system: HOP-18 NSCLC
[68] = system: DLD-1 colon

In the case of `N#C/C(=C/c1cccc2ccccc12)C(=O)c1ccccc1`, the TGI [1] is reported as 39.3 µM, the TGI [2] is reported as over 10 µM and the TGI [3] is reported as 54.8 µM. For the same compound, the TGI [4] was 37.1 µM, the TGI [5] was over 100 µM and the TGI [6] was 39.3 µM. For the same compound, the TGI [7] was 55.3 µM, the TGI [8] was 35.9 µM and the TGI [9] was 32.2 µM. For the same compound, the TGI [10] was 39 µM, the TGI [11] was over 100 µM and the TGI [12] was 78.2 µM. It also gave a TGI [13] of 38.2 µM, a TGI [14] of 44.4 µM and a TGI [15] of 47.9 µM. The TGI [16] was over 100 µM, the TGI [17] was 86.6 µM and the TGI [18] was over 100 µM. It also gave a TGI [19] of 41.1 µM, a TGI [20] of 88.3 µM and a TGI [21] of 34.9 µM. For the same compound, the TGI [22] was 85.6 µM, the TGI [23] was over 10 µM and the TGI [24] was 30.3 µM. It also gave a TGI [25] of 47.6 µM, a TGI [26] of over 100 µM and a TGI [27] of 41.6 µM. For the same compound, the TGI [28] was 34.4 µM, the TGI [29] was over 10 µM and the TGI [30] was 30.6 µM. For the same compound, the TGI [31] was 30 µM, the TGI [32] was over 100 µM and the TGI [33] was 50.1 µM. The TGI [34] was 32 µM, the TGI [35] was 69.6 µM and the TGI [36] was 46.9 µM. For the same compound, the TGI [37] was 39.3 µM, the TGI [38] was over 100 µM and the TGI [39] was 49.2 µM. The TGI [40] was 38.4 µM, the TGI [41] was 54.6 µM and the TGI [42] was over 10 µM. It also gave a TGI [43] of over 10 µM, a TGI [44] of 41.6 µM and a TGI [45] of 37.9 µM. For the same compound, the TGI [46] was over 10 µM, the TGI [47] was 43.2 µM and the TGI [48] was over 100 µM. It also gave a TGI [49] of over 100 µM.

For `CN(C)C(=S)NC(=S)Nc1ccc2ccccc2c1`, the TGI [50] was 39 µM, the TGI [1] was 59.9 µM and the TGI [2] was 23.3 µM. It also gave a TGI [51] of 14.1 µM, a TGI [52] of 46 µM and a TGI [3] of 34.6 µM. The TGI [4] was 23.7 µM, the TGI [5] was 57.8 µM and the TGI [6] was 19.6 µM. The TGI [7] was 48.3 µM, the TGI [53] was 65.8 µM and the TGI [8] was 48 µM. For the same compound, the TGI [9] was 43.9 µM, the TGI [54] was 97.8 µM and the TGI [55] was 59.6 µM. For the same compound, the TGI [10] was 10.5 µM, the TGI [56] was 37.1 µM and the TGI [11] was 68.8 µM. The TGI [12] was 22.4 µM, the TGI [13] was 34.4 µM and the TGI [57] was 48.1 µM. It also gave a TGI [14] of 18.8 µM, a TGI [15] of 31.5 µM and a TGI [58] of 47.3 µM. For the same compound, the TGI [18] was 77.5 µM, the TGI [19] was 46.2 µM and the TGI [59] was 62.5 µM. It also gave a TGI [20] of 35.8 µM, a TGI [21] of 31.6 µM and a TGI [22] of 31.9 µM. For the same compound, the TGI [23] was 25 µM, the TGI [60] was 53.9 µM and the TGI [24] was over 64.8 µM. For the same compound, the TGI [61] was 68 µM, the TGI [25] was 35.1 µM and the TGI [62] was 77.9 µM. For the same compound, the TGI [26] was 55.3 µM, the TGI [27] was 41.6 µM and the TGI [28] was 27 µM. It also gave a TGI [29] of 51.1 µM, a TGI [63] of 38.3 µM and a TGI [30] of 50.4 µM. The TGI [31] was 40.3 µM, the TGI [32] was over 89.4 µM and the TGI [33] was 60.1 µM. For the same compound, the TGI [34] was over 75.2 µM, the TGI [64] was 48.1 µM and the TGI [35] was 45 µM. It also gave a TGI [36] of 51.7 µM, a TGI [37] of 33.3 µM and a TGI [65] of 42.1 µM. It also gave a TGI [38] of 25.3 µM, a TGI [39] of 36.6 µM and a TGI [40] of 26.9 µM. For the same compound, the TGI [66] was 21.9 µM, the TGI [41] was 32 µM and the TGI [42] was 24.2 µM. It also gave a TGI [43] of over 83 µM, a TGI [44] of over 72.1 µM and a TGI [45] of over 46.9 µM. It also gave a TGI [46] of over 31.5 µM, a TGI [47] of 37.6 µM and a TGI [48] of 65.3 µM. The TGI [49] was over 100 µM.

Work on `CCCCCCCCCCCCCCCC(=O)Nc1ccn(C2OC(CO)C(O)C2O)c(=O)n1` (stereo unspecified) yielded a TGI [50] of over 100 µM, a TGI [1] of over 100 µM and a TGI [2] of over 100 µM. The TGI [51] was over 100 µM, the TGI [52] was over 100 µM and the TGI [67] was over 100 µM. For the same compound, the TGI [3] was over 100 µM, the TGI [4] was over 100 µM and the TGI [5] was over 100 µM. It also gave a TGI [6] of 38 µM, a TGI [7] of over 100 µM and a TGI [53] of over 97.2 µM. For the same compound, the TGI [8] was over 43.9 µM, the TGI [9] was 81.5 µM and the TGI [54] was over 91.4 µM. For the same compound, the TGI [55] was over 100 µM, the TGI [10] was 7.28 µM and the TGI [56] was over 100 µM. The TGI [11] was over 100 µM, the TGI [12] was over 65.6 µM and the TGI [13] was 17.3 µM. It also gave a TGI [57] of 85.5 µM, a TGI [14] of over 100 µM and a TGI [15] of over 100 µM. The TGI [16] was over 100 µM, the TGI [17] was over 100 µM and the TGI [58] was over 100 µM. The TGI [18] was over 100 µM, the TGI [19] was over 88 µM and the TGI [59] was over 90.4 µM. The TGI [68] was over 100 µM, the TGI [20] was 62.7 µM and the TGI [21] was over 100 µM. It also gave a TGI [22] of over 100 µM, a TGI [23] of over 100 µM and a TGI [60] of over 100 µM. It also gave a TGI [24] of over 100 µM, a TGI [61] of over 100 µM and a TGI [25] of over 100 µM. For the same compound, the TGI [62] was over 50.3 µM, the TGI [26] was over 100 µM and the TGI [27] was over 100 µM. The TGI [28] was over 100 µM, the TGI [29] was over 100 µM and the TGI [63] was over 100 µM. It also gave a TGI [30] of 32.5 µM, a TGI [31] of over 100 µM and a TGI [32] of over 100 µM. It also gave a TGI [33] of over 100 µM, a TGI [34] of over 100 µM and a TGI [64] of over 100 µM. It also gave a TGI [35] of over 100 µM, a TGI [36] of 43.3 µM and a TGI [65] of over 100 µM. The TGI [38] was over 100 µM, the TGI [39] was over 100 µM and the TGI [40] was over 100 µM. It also gave a TGI [66] of over 100 µM, a TGI [41] of over 79.7 µM and a TGI [42] of over 100 µM. For the same compound, the TGI [43] was 99.4 µM, the TGI [44] was over 80.8 µM and the TGI [45] was over 100 µM. It also gave a TGI [46] of over 100 µM, a TGI [47] of over 100 µM and a TGI [48] of over 100 µM. It also gave a TGI [49] of over 100 µM.

Compound `CCc1n[nH]c(=S)n1/N=C/c1ccc(-c2ccc([N+](=O)[O-])cc2)o1` has a TGI [50] of over 100 µM, a TGI [1] of over 100 µM and a TGI [2] of over 100 µM. It also gave a TGI [51] of over 100 µM, a TGI [3] of over 100 µM and a TGI [4] of over 100 µM. It also gave a TGI [5] of over 100 µM, a TGI [6] of over 100 µM and a TGI [8] of over 100 µM. For the same compound, the TGI [9] was over 100 µM, the TGI [11] was over 100 µM and the TGI [12] was over 100 µM. For the same compound, the TGI [13] was over 100 µM, the TGI [57] was over 100 µM and the TGI [14] was over 100 µM. For the same compound, the TGI [15] was over 100 µM, the TGI [17] was over 100 µM and the TGI [58] was over 100 µM. For the same compound, the TGI [18] was over 100 µM, the TGI [19] was over 100 µM and the TGI [59] was over 100 µM. For the same compound, the TGI [68] was over 100 µM, the TGI [20] was over 100 µM and the TGI [21] was over 100 µM. The TGI [22] was over 100 µM, the TGI [24] was over 100 µM and the TGI [25] was over 100 µM. For the same compound, the TGI [26] was over 100 µM, the TGI [27] was over 100 µM and the TGI [28] was over 100 µM. For the same compound, the TGI [30] was over 100 µM, the TGI [31] was over 100 µM and the TGI [32] was over 100 µM. It also gave a TGI [33] of over 100 µM, a TGI [34] of over 100 µM and a TGI [35] of over 100 µM. For the same compound, the TGI [36] was over 100 µM, the TGI [37] was over 100 µM and the TGI [38] was over 100 µM. For the same compound, the TGI [39] was over 100 µM, the TGI [40] was over 100 µM and the TGI [66] was over 100 µM. The TGI [41] was over 100 µM, the TGI [42] was over 100 µM and the TGI [43] was over 100 µM. The TGI [44] was over 100 µM, the TGI [45] was over 100 µM and the TGI [46] was over 100 µM. The TGI [47] was over 100 µM, the TGI [48] was over 100 µM and the TGI [49] was over 100 µM.
